In data set [1] the test system is human keratinocytes. Briefly: Scratch assay on monolayer culture of human keratinocytes. It is filed as cell-based. The following applies: 72 hours. On the procedure: Normal keratinocytes surgically sampled in a person were cultivated so as to obtain a monolayer culture of keratinocytes.
When confluence was attained, a lesion (“scratch”) was carried out in each cell culture so as to locally remove an equivalent amount of keratinocytes.
Each culture of keratinocytes was then incubated at 37° C. in a humid atmosphere and in the presence of 5% of CO2, in the presence of an adipocyte culture medium conditioned with swertiamarin (0.0025%; 0.005%; 0.0075% by weight), for 72 hours. The swertiamarin was introduced into the adipocyte culture medium by dilution of a stock solution at 10% in DMSO. The final amount of DMSO in the culture media is 0.15%. […]
The surface corresponding to the “lesion” (i.e. to the area where the keratinocytes were removed) was measured before (t=0) and after incubation for each cell culture from photographs obtained by optical microscopy by using the software package Image J.
The results were expressed as a percentage of re-colonized surface relative to the surface observed at t=0.
The statistical significance of the differences obtained between the groups “DMSO Control” and the groups “TGF-β Controls” was evaluated by using the t-test (***: p<0.001). […]

Data set [2] deals with fibronectin. Briefly: Fibronectin synthesis by normal human fibroblasts of the dermis (NHDF), ELISA. It is filed as cell-based. The following applies: 24 h or 48 h. The protocol: The applied test was based on the synthesis of fibronectin induced by TGF-β by cells of normal human fibroblasts of the dermis (NHDF) in a monolayer culture. The culture was produced by using as a culture medium DMEM (Eurobio, CMODME70-08) containing 10% of fetal calf serum (Eurobio, CVFSV00-0U), 1% of antibiotics (penicillin/streptomycin, Eurobio, CABPES01-OU) and 1% of L-glutamine (Eurobio, CSTGLUOO-OU), at a temperature of 37° C. under 5% of CO2 and 95% of humidity.
The cells were then sown, in the presence of complete DMEM, in microplates in an amount of 2.5*10^4 cells per well and then incubated at a temperature of 37° C. under 5% of CO2 and 95% of humidity. The culture medium was replaced after 24 hours in order to bring the cells to a quiescent state.
Next, the cells were incubated in the presence of TGF-β or swertiamarin for 24 h or 48 h. The cell supernatants were then collected in order to quantify fibronectin by an ELISA test (BMS028, Ebiosciences). The cell viability level was also determined by the standard MTT test. As a control, cells were incubated under the same conditions but in the absence of TGF-β and of swertiamarin (control).
The results are expressed as a percentage of the amount of fibronectin produced per mL relative to the amount of fibronectin produced by the group of control experiments.

Data set [3] has as its system keratinocyte growth factor (KGF). Briefly: KGF quantification by ELISA in culture medium of human adipocytes. It counts as cell-based. The following applies: 0.0075% by weight of swertiamarin, 15 hours, normal human adipocytes, vs DMSO control. The protocol:
A stock solution at 10% by weight of swertiamarin in DMSO was prepared. This solution was then diluted in the culture medium so as to obtain a final concentration of 0.0075% by weight of swertiamarin.
A culture of normal human adipocytes, obtained from adipocytes sampled by abdominal plastic surgery in a person, was incubated for 15 hours with the culture medium containing swertiamarin. As a negative control, a culture of adipocytes incubated for 15 hours with a culture medium without any swertiamarin but containing the same amount of DMSO was used.
At the end of the incubation, the amount of KGF was quantified in each culture medium by an ELISA test. The statistical significance of the differences between the “control” groups and the “test groups” was evaluated by variance analysis (One way Anova) followed by the Holm Sida test (p*<0.05).

In data set [4] the test system is human skin explants.
Method: 21 skin explants with a diameter of 10 mm were prepared from these samples, among which 12 are skin explants without any adipose tissue (epidermis+dermis explant) and 9 are full skin explants (epidermis+dermis+hypodermis). The explants are maintained alive in a BEM medium at 37° C. in the presence of a humid atmosphere with 5% of CO2. The skin explants were distributed into three groups: • Group 1: a cream containing swertiamarin (SWT) in an amount of 0.025% was applied at days 0, 1, 2, 3, 6 and 7 of the incubation, to the surface of the skin explants by means of a spatula (1 μl in the morning and 1 μl in the evening), • Group 2: a placebo cream (free of swertiamarin) was applied on days 0, 1, 2, 3, 6 and 7 of the incubation, to the surface of the skin explants by means of a spatula (1 μl in the mornings and 1 μl in the evenings), • Group 3: this control group was maintained alive without any treatment (without application of a placebo cream or of cream based on swertiamarin).
On day 9, the skin explants are recovered, chemically bound in a formol solution for 24 hours, dehydrated, impregnated with paraffin and then infiltrated with resin according to the SOP H-53 protocol. Fine cuts are then made in each explant and observed by optical microscopy after staining.

Regarding TGF-β [reference compound], the “cell re-colonization (re-colonized surface) vs DMSO Control” value in data set [1] (TGF-β 10 ng/ml, p<0.001) is “+124.1%”. The “production of fibronectin vs control” value in data set [2] (TGF-β) is listed as “+64%”.

Consider Swertiamarin, for which the “increase in the average amount of KGF in the culture medium” value in data set [3] is listed as “about 16.4%”. Further, in data set [1] (adipocyte culture medium conditioned with 0.0025% swertiamarin), the “increase of the surface area re-colonized by the keratinocytes vs DMSO Control” value is reported as “+64.6%”. In addition, in data set [2] (0.005% swertiamarin), the “increase of the amount of fibronectin vs control” value was “more than 171%”. The “morphological alteration of treated skin explants” value in data set [4] is on record as “do not exhibit any notable morphological alteration”.

Values taken from patent US11285093B2, “Cosmetic uses of swertiamarin” (LUCAS MEYER COSMETICS, priority 2014, dated 2022).
